Reference: PubChem BioAssay AID248 (DTP/NCI, 2004)
Values joined by “and” are separate entries in the source; they are usually repeats but may differ in a detail not shown here. Equal entries are not always repeated. Inconclusive results and toxic doses are left out. Cut-off read from the data, not from the text of the source: active = T/C of 150% or more; inactive = T/C below 125%.

Tested on: L1210 leukemia ip in BDF1 mice, survival T/C
Assay: NCI In Vivo Anticancer Drug Screen. Data for tumor model L1210 Leukemia (intraperitoneal) in B6D2F1 (BDF1) mice
Conditions: endpoint: mean survival time, higher = longer survival
In short: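 Read-out is survival time, reported as the treated-group measurement over the vehicle-control measurement.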

[1] = dose: 50.0 mg/kg/injection, schedule: Q01DX001 (ip), vehicle: saline
[2] = dose: 100.0 mg/kg/injection, schedule: Q01DX001 (ip), vehicle: saline
[3] = dose: 200.0 mg/kg/injection, schedule: Q01DX001 (ip), vehicle: saline
[4] = dose: 400.0 mg/kg/injection, schedule: Q01DX001 (ip), vehicle: saline

Measured: T/C

C#CC(C)(C)N1CCCCC1
inactive: dose: 25.0 mg/kg/injection, schedule: Q04DX003 (ip), vehicle: Klucel (hydroxypropylcellulose) (HPC) 110 % of control | dose: 50.0 mg/kg/injection, schedule: Q04DX003 (ip), vehicle: Klucel (hydroxypropylcellulose) (HPC) 106 % of control

Cc1ccc2c(ccc(C)[n+]2C)c1
inactive: dose: 37.5 mg/kg/injection, schedule: Q01DX009 (ip), vehicle: acetone 117 % of control | dose: 37.5 mg/kg/injection, schedule: Q01DX009 (ip), vehicle: saline 110 % of control and 112 % of control | dose: 75.0 mg/kg/injection, schedule: Q01DX001 (ip), vehicle: saline 100 % of control | dose: 75.0 mg/kg/injection, schedule: Q01DX009 (ip), vehicle: saline 118 % of control and 121 % of control | dose: 150.0 mg/kg/injection, schedule: Q01DX001 (ip), vehicle: saline 108 % of control | dose: 150.0 mg/kg/injection, schedule: Q01DX009 (ip), vehicle: acetone 102 % of control | dose: 300.0 mg/kg/injection, schedule: Q01DX001 (ip), vehicle: saline 105 % of control

O=S(=O)(O)C(O)c1cccc2ccccc12 (stereo unspecified)
inactive: dose: 100.0 mg/kg/injection, schedule: Q01DX009 (ip), vehicle: saline with Tween-80 105 % of control | dose: 200.0 mg/kg/injection, schedule: Q01DX009 (ip), vehicle: saline with Tween-80 105 % of control | dose: 400.0 mg/kg/injection, schedule: Q01DX009 (ip), vehicle: saline with Tween-80 115 % of control

Cc1cccc(NC(=O)Oc2ccc3c(C)cc(=O)oc3c2)c1
inactive: dose: 100.0 mg/kg/injection, schedule: Q01DX009 (ip), vehicle: Klucel (hydroxypropylcellulose) (HPC) 110 % of control | dose: 100.0 mg/kg/injection, schedule: Q04DX002 (ip), vehicle: Klucel (hydroxypropylcellulose) (HPC) 93 % of control | dose: 200.0 mg/kg/injection, schedule: Q01DX009 (ip), vehicle: Klucel (hydroxypropylcellulose) (HPC) 98 % of control | dose: 200.0 mg/kg/injection, schedule: Q04DX002 (ip), vehicle: Klucel (hydroxypropylcellulose) (HPC) 96 % of control | dose: 400.0 mg/kg/injection, schedule: Q01DX009 (ip), vehicle: Klucel (hydroxypropylcellulose) (HPC) 94 % of control | dose: 400.0 mg/kg/injection, schedule: Q04DX002 (ip), vehicle: Klucel (hydroxypropylcellulose) (HPC) 93 % of control

CN(C)P1(=S)NCCCO1 (stereo unspecified)
inactive: dose: 87.5 mg/kg/injection, schedule: Q01DX009 (ip), vehicle: other 97 % of control | dose: 175.0 mg/kg/injection, schedule: Q01DX009 (ip), vehicle: other 100 % of control | dose: 350.0 mg/kg/injection, schedule: Q01DX009 (ip), vehicle: other 100 % of control

O=P(O)(O)OCC1OC(O)(COP(=O)(O)O)C(O)C1O (stereo unspecified)
inactive: dose: 100.0 mg/kg/injection, schedule: Q04DX002 (ip), vehicle: saline 100 % of control | dose: 200.0 mg/kg/injection, schedule: Q04DX002 (ip), vehicle: saline 106 % of control | dose: 400.0 mg/kg/injection, schedule: Q04DX002 (ip), vehicle: saline 95 % of control

O=C(OCC1OC(n2ccc(=S)[nH]c2=O)C(OC(=O)c2ccccc2)C1OC(=O)c1ccccc1)c1ccccc1 (stereo unspecified)
inactive: [1] 98 % of control | [2] 95 % of control | [3] 101 % of control | [4] 104 % of control

Cc1ncc(C(N)=O)c2c1OC(C)(C)OC2
inactive: [1] 100 % of control | [2] 97 % of control | [3] 94 % of control | [4] 88 % of control

CS(=O)(=O)Nc1cc(Cl)c(NS(C)(=O)=O)c(Cl)c1Cl
inactive: dose: 100.0 mg/kg/injection, schedule: Q01DX001 (ip), vehicle: saline with Tween-80 101 % of control | dose: 200.0 mg/kg/injection, schedule: Q01DX001 (ip), vehicle: saline with Tween-80 96 % of control | dose: 400.0 mg/kg/injection, schedule: Q01DX001 (ip), vehicle: saline with Tween-80 107 % of control

COc1ccccc1-n1c(O)c(N=Nc2ccc(Br)cc2)c(=O)n(-c2ccc(C)cc2)c1=S
inactive: dose: 100.0 mg/kg/injection, schedule: Q01DX001 (ip), vehicle: Klucel (hydroxypropylcellulose) (HPC) 109 % of control | dose: 200.0 mg/kg/injection, schedule: Q01DX001 (ip), vehicle: Klucel (hydroxypropylcellulose) (HPC) 102 % of control | dose: 400.0 mg/kg/injection, schedule: Q01DX001 (ip), vehicle: Klucel (hydroxypropylcellulose) (HPC) 102 % of control

CC(=O)Oc1ccc2nccc(C)c2c1
inactive: [2] 100 % of control | [3] 100 % of control | [4] 100 % of control
